Measured values published in patent publication US8124380B2 (priority 2003, dated 2012).
“And” between values parts separate entries of the source, which are not always exact repeats. Identical values can stand only once.

Tests used:
mIgG D15-7 = assay type: binding, murine
mIgG E4-1 = assay type: binding, murine
mIgG A2-1 = assay type: binding, murine
mIgG C1-7 = assay type: binding, murine
mIgG F22-4 = assay type: binding, murine
LPS 2a = system: LPS 2a; design: species or system mice; details: in vivo
[1] = system: mIgG F22-4, D15-7, A2-1, E4-1, C1-7; assay type: binding, murine

Compound | IC50 (mIgG D15-7) [µM] | IC50 (mIgG E4-1) | IC50 (mIgG A2-1) [µM] | fold increase in binding (mIgG A2-1) [fold] | IC50 (mIgG C1-7) [µM] | IC50 (mIgG F22-4) | Anti-LPS 2a antibody titer, individual mouse (1) (LPS 2a) | Anti-LPS 2a antibody titer, individual mouse (2) (LPS 2a) | improving Ab binding by a factor (mIgG D15-7) | improving Ab binding by a factor (mIgG E4-1) | gain in recognition / binding improvement by a factor (mIgG A2-1) | recognition (binding) by the mIgG [1]
COC1OC(C)C(OC2OC(CO)C(O)C(O)C2O)C(OC2OC(C)C(O)C(O)C2OC2OC(C)C(O)C(O)C2OC2OC(CO)C(O)C(OC3OC(C)C(OC4OC(CO)C(O)C(O)C4O)C(OC4OC(C)C(O)C(O)C4OC4OC(C)C(O)C(O)C4OC4OC(CO)C(O)C(O)C4NC(C)=O)C3O)C2NC(C)=O)C1O [DA B(E)CDA B(E)C, Methyl (2-acetamido-2-deoxy-β-D-glucopyranosyl)-(1→2)-(α-L-rhamnopyranosyl)-(1→2)-(α-L-rhamnopyranosyl)-(1→3)-[α-D-glucopyranosyl-(1→4)]-(α-L-rhamnopyranosyl)-(1→3)-(2-acetamido-2-deoxy-β-D-glucopyranosyl)-(1→2)-(α-L-rhamnopyranosyl)-(1→2)-(α-L-rhamnopyranosyl)-(1→3)-[α-D-glucopyranosyl-(1→4)]-α-L-rhamnopyranoside] | 11.9 | 4.4 µM | 3 | 100 | 19 | 5 µM |  |  |  |  |  | 
COC1OC(C)C(O)C(O)C1OC1OC(CO)C(O)C(OC2OC(C)C(OC3OC(CO)C(O)C(O)C3O)C(O)C2O)C1NC(C)=O (stereo not shown) [(E)CDA] | > 1000 | > 1000 µM | > 1000 |  | > 1000 | 181 µM |  |  |  |  |  | 
CO[C@@H]1O[C@H](CO)[C@@H](O)[C@H](O[C@@H]2O[C@@H](C)[C@H](O[C@H]3O[C@H](CO)[C@@H](O)[C@H](O)[C@H]3O)[C@@H](O[C@@H]3O[C@@H](C)[C@H](O)[C@@H](O)[C@H]3O[C@@H]3O[C@@H](C)[C@H](O)[C@@H](O)[C@H]3O)[C@H]2O)[C@H]1NC(C)=O [AB(E)CD, Methyl α-L-rhamnopyranosyl-(1→2)-α-L-rhamnopyranosyl-(1→3)-[α-D-glucopyranosyl-(1→4)]-α-L-rhamnopyranosyl-(1→3)-2-acetamido-2-deoxy-β-D-glucopyranoside] | 490 | 287 µM and 288 µM | 378 |  | 734 | 21 µM and 21.6 µM |  |  |  |  |  | 
CO[C@@H]1O[C@@H](C)[C@H](O)[C@@H](O)[C@H]1O[C@@H]1O[C@H](CO)[C@@H](O)[C@H](O[C@@H]2O[C@@H](C)[C@H](O[C@H]3O[C@H](CO)[C@@H](O)[C@H](O)[C@H]3O)[C@@H](O[C@@H]3O[C@@H](C)[C@H](O)[C@@H](O)[C@H]3O)[C@H]2O)[C@H]1NC(C)=O [B(E)CDA] | 240 | 75 µM | 350 |  | 400 | 2.5 µM |  |  |  |  |  | 
TT: tetanus toxoid alone (140 μg/mice/injection), control [reference compound] |  |  |  |  |  |  | 0 | 0 |  |  |  | 
COC1OC(C)C(OC2OC(CO)C(O)C(O)C2O)C(OC2OC(C)C(O)C(O)C2O)C1O (stereo not shown) [B(E)C] | > 1000 | > 1000 µM | > 1000 |  | > 1000 | > 1000 µM |  |  |  |  |  | 
CO[C@@H]1O[C@H](CO)[C@@H](O)[C@H](O[C@@H]2O[C@@H](C)[C@H](O[C@H]3O[C@H](CO)[C@@H](O)[C@H](O)[C@H]3O)[C@@H](O[C@@H]3O[C@@H](C)[C@H](O)[C@@H](O)[C@H]3O)[C@H]2O)[C@H]1NC(C)=O [B(E)CD, Methyl α-L-rhamnopyranosyl-(1→3)-[α-D-glucopyranosyl-(1→4)]-α-L-rhamnopyranosyl-(1→3)-2-acetamido-2-deoxy-β-D-glucopyranoside] | 198 | 87 µM | > 1000 |  | > 1000 | 5 µM |  |  |  |  |  | 
COC1OC(C)C(OC2OC(CO)C(O)C(O)C2O)C(OC2OC(C)C(O)C(O)C2OC2OC(C)C(O)C(O)C2OC2OC(CO)C(O)C(OC3OC(C)C(OC4OC(CO)C(O)C(O)C4O)C(OC4OC(C)C(O)C(O)C4O)C3O)C2NC(C)=O)C1O (stereo not shown) [B(E)CDA B(E)C] | 60.8 | 12 µM | 12.9 |  | 242 | 0.22 µM |  |  | ~4 | ~4 | ~25 | 
COC1OC(C)C(OC2OC(CO)C(O)C(O)C2O)C(OC2OC(C)C(O)C(O)C2OC2OC(C)C(O)C(O)C2OC2OC(CO)C(O)C(O)C2NC(C)=O)C1O (stereo not shown) [DAB(E)C] | > 1000 | > 1000 µM | > 1000 |  | > 1000 | > 1000 µM |  |  |  |  |  | absence of recognition
CO[C@@H]1O[C@@H](C)[C@H](O)[C@@H](O)[C@H]1O[C@@H]1O[C@@H](C)[C@H](O)[C@@H](O)[C@H]1O[C@@H]1O[C@H](CO)[C@@H](O)[C@H](O[C@@H]2O[C@@H](C)[C@H](O[C@H]3O[C@H](CO)[C@@H](O)[C@H](O)[C@H]3O)[C@@H](O)[C@H]2O)[C@H]1NC(C)=O [(E)CDAB, Methyl α-D-glucopyranosyl-(1→4)-α-L-rhamnopyranosyl-(1→3)-2-acetamido-2-deoxy-β-D-glucopyranosyl-(1→2)-α-L-rhamnopyranosyl-(1→2)-α-L-rhamnopyranoside] | > 1000 | > 1000 µM | > 1000 |  | > 1000 | 354 µM |  |  |  |  |  | 
